≈ marks a conversion by molar mass, not a printed value.
Assays:
Staphylococcus aureus [1] = assay: MIC determination of compounds on ECO/PAE/STA in microplates; assay type: cell-based; details: lowest concentration with no growth (90% inhibition of growth), 18-20 hours at 37° C., visual, strain not given
Cytotoxicity MTT assay = assay type: cell-based; details: human, HelaM cells, concentration that causes 50% reduction in cell viability
Experimental: Cytotoxicity of the compounds was evaluated using the MTT assay. Human HelaM cells grown in 96-well plates were exposed to serial dilutions of the tested compounds (final volume of 0.2 ml) and incubated for 72 hours at 37° C. and 5% CO2 Inhibitors are typically varied over the range of 25 to 0.8 μM. The final DMSO concentration in the assay is 0.5%. MTT (3-(4,5-Dimethylthiazol-2-yl)-2,5-diphenyltetrazolium bromide, a tetrazole) was added and reduced to purple formazan only in living cells. Solubilization of the formazan crystals was achieved by adding 100 μl 2-propanol. Cell viability was determined by measuring the absorbance of the reduced formazan, giving a purple color, at 540 nm and 690 nm. The absorbance measured at 690 nm was automatically subtracted from the absorbance at 540 nm, to eliminate the effects of non-specific absorption. The percent cytotoxicity achieved by the compounds was calculated according to standard methods. Cytotoxicity is reported as CC50, the concentration that causes a 50% reduction in cell viability.

Staphylococcus aureus [2] = assay: Antibacterial susceptibility testing: IC90 determination (broth microdilution, resazurin fluorescence); assay type: cell-based; details: 90% inhibitory concentration for bacterial growth, Mueller Hinton broth, 35° C., 16-20 hours, strain not given
Experimental: Preparation of Bacterial Suspensions for Susceptibility Testing
The following bacteria were used: Staphylococcus aureus ATCC 29213, methicillin-resistant Staphylococcus aureus (MRSA) ATCC 700788 and Escherichia coli ATCC 35218. The bacteria used in this study were grown overnight in flasks containing 100 ml Mueller-Hinton broth (Difco cat. nr. 0757-17) in sterile de-ionized water, with shaking, at 37° C. Stocks were store at −70° C. until use.
Bacteria were incubated on a tryptic soy agar plate containing 5% sheep blood (Becton Dickinson cat. nr. 254053) for 18-24 hours at 35° C. in aerobic conditions (first passage). For the second passage, fresh Mueller-Hinton broth is inoculated with 5-10 colonies and grown overnight at 35° C. until turbidity (reaching log-phase) in aerobic conditions is reached. The bacterial suspension is then adjusted to 0.5 McFarland density and further diluted 1:100 in Mueller Hinton broth medium. This is used as inoculum.
Antibacterial Susceptibility Testing: IC90 Determination
MIC assays were performed by the broth microdilution method in a 96-well format (flat-bottom microtitre plates) with a final volume of 0.1 ml Mueller Hinton broth containing two-fold serial dilutions of compounds and inoculated with 5×10^5 CFU/ml of bacteria (standard inoculum size according to CLSI guidelines). Inhibitors are typically varied over the range of 63 to 0.49 μM. The final DMSO concentration in the assay was 1.25% (maximum tolerable DMSO concentration=6%). In the assays where the effect of human serum on the activity of the compounds against S. aureus was tested, human serum was added at a final concentration of 10%. The plates were incubated at 35° C. for 16-20 hours. At the end of incubation the bacterial growth was quantified fluorometrically. For this, resazurin was added to all wells and the plates were re-incubated. The incubation time is dependent on the type of bacteria. A change in color from blue to pink indicated the growth of bacteria. The fluorescence was read in computer-controlled fluorometer (Fluoroskan Ascent FL, Labsystems) at an excitation wavelength 540 nm and an emission wavelength of 590 nm. The % growth inhibition achieved by the compounds was calculated according to standard methods. The IC90 (expressed in μg/ml) was defined as the 90% inhibitory concentration for bacterial growth. A panel of reference compounds were simultaneously tested for QC approval.

MIC90 (Staphylococcus aureus [1])	melting point	IC90 (Staphylococcus aureus [2])	Compound	CC50 at 72 h (Cytotoxicity MTT assay)
0.5 µg/mL (≈ 1.14 µM)	–	–	C#Cc1ccc(-c2ncc(-c3cccc(OC)c3)c(C3CCN(CC(C)(C)C)CC3)n2)cc1 [Compound 91]	–
0.125 µg/mL (≈ 0.284 µM)	171 °C	–	CC(C)(C#N)CN1CCC(c2nc(-c3ccc(F)cc3)ncc2-c2cccc(C#N)c2)CC1 [Compound 80]	–
0.125 µg/mL (≈ 0.277 µM)	207 °C	–	COc1cccc(-c2cnc(-c3ccc(C#N)cc3)nc2C2CCN(CC(C)(C)C#N)CC2)c1 [Compound 86]	–
0.125 µg/mL (≈ 0.279 µM)	249 to 251 °C	–	N#Cc1ccc(-c2ncc(-c3cccc(C#N)c3)c(C3CCN(CC(F)(F)F)CC3)n2)cc1 [Compound 84]	–
0.125 µg/mL (≈ 0.277 µM)	–	–	C#Cc1ccc(-c2ncc(-c3cccc(OC)c3)c(C3CCN(CC(C)(C)C#N)CC3)n2)cc1 [Compound 92]	–
0.25 µg/mL (≈ 0.565 µM)	75 to 80 °C	–	CC(C)(C)C(=O)N1CCC(c2nc(-c3ccc(F)cc3)ncc2-c2cccc(C#N)c2)CC1 [Compound 77]	–
0.125 µg/mL (≈ 0.276 µM)	180 to 182 °C	–	COc1cccc(-c2cnc(-c3ccc(C#N)cc3)nc2C2CCN(CC(F)(F)F)CC2)c1 [Compound 83]	–
2 µg/mL (≈ 4 µM)	101 to 122 °C	–	CC(C)(C#N)CN1CCC(c2nc(-c3ccc(S(C)(=O)=O)cc3)ncc2-c2cccc(C#N)c2)CC1 [Compound 87]	–
0.125 µg/mL (≈ 0.247 µM)	–	–	COc1cccc(-c2cnc(-c3ccc(Br)cc3)nc2C2CCN(CC(C)(C)C#N)CC2)c1 [Compound 88]	–
–	154 to 158 °C	< 0.21 µg/mL	CC(C)(C)CN1CCC(c2nc(-c3ccc(F)cc3)ncc2-c2cccc(C#N)c2)CC1 [Compound 66]	8.8 µg/mL (≈ 20.5 µM)
–	155 °C	1.29 µg/mL (≈ 3.13 µM)	CC(C)(C)CN1CCC(c2nc(-c3ccncc3)ncc2-c2cccc(C#N)c2)CC1 [Compound 54]	> 10.3 µg/mL
–	144 to 145 °C	0.81 µg/mL (≈ 1.83 µM)	COc1ccc(-c2ncc(-c3cccc(C#N)c3)c(C3CCN(CC(C)(C)C)CC3)n2)cn1 [Compound 67]	> 11.1 µg/mL
0.125 µg/mL (≈ 0.261 µM)	–	–	CC(C)(C)S(=O)(=O)N1CCC(c2nc(-c3ccc(F)cc3)ncc2-c2cccc(C#N)c2)CC1 [Compound 89]	–

The next lines start with the molecule.

Compound	MIC90 (Staphylococcus aureus [1])	melting point	IC90 (Staphylococcus aureus [2])	CC50 at 72 h (Cytotoxicity MTT assay)
CC(C)(C)CNCCNc1nc(-c2ccncc2)ncc1-c1cccc(C#N)c1 [Compound 73]	> 64 µg/mL	–	–	–
COc1ccc(-c2ncc(-c3cccc(C#N)c3)c(C3CCN(CC(C)(C)C#N)CC3)n2)cn1 [Compound 85]	0.125 µg/mL (≈ 0.276 µM)	165 °C	–	–
COc1cccc(-c2cnc(-c3ccc(Br)cc3)nc2C2CCN(CC(C)(C)C)CC2)c1 [Compound 90]	0.25 µg/mL (≈ 0.506 µM)	–	–	–
C#Cc1ccc(-c2ncc(-c3cccc(OC)c3)c(C3CCN(CC(F)(F)F)CC3)n2)cc1 [Compound 93]	0.125 µg/mL (≈ 0.277 µM)	–	–	–
CC(C)(C)CN1CCN(c2nc(-c3ccncc3)ncc2-c2cccc(C#N)c2)CC1 [Compound 74]	0.125 µg/mL (≈ 0.303 µM)	155 to 164 °C	–	–
COc1cccc(-c2cnc(-c3ccc(OC)nc3)nc2C2CCN(CC(F)(F)F)CC2)c1 [Compound 79]	0.125 µg/mL (≈ 0.273 µM)	–	–	–
CC(C)(C)CN1CCC(c2nc(-c3ccncc3)ncc2-c2cccc(C(F)(F)F)c2)CC1 [Compound 40]	–	112 to 114 °C	0.52 µg/mL (≈ 1.14 µM)	7 µg/mL (≈ 15.4 µM)
COc1cccc(-c2cnc(-c3ccncc3)nc2C2CCN(Cc3cccc(C)c3)CC2)c1 [Compound 33]	–	160 °C	13.2 µg/mL (≈ 29.2 µM)	7.6 µg/mL (≈ 16.9 µM)
COc1cccc(-c2cnc(-c3ccncc3)nc2C2CCN(Cc3ccsc3)CC2)c1 [Compound 4]	–	135 °C	12.9 µg/mL (≈ 29.2 µM)	> 11.1 µg/mL
COc1cccc(-c2cnc(-c3ccncc3)nc2C2CCN(Cc3cccc(Cl)c3)CC2)c1 [Compound 45]	–	133 °C	3.49 µg/mL (≈ 7.41 µM)	4.9 µg/mL (≈ 10.4 µM)
Cc1cccc(-c2cnc(-c3ccncc3)nc2C2CCN(CC(C)(C)C)CC2)c1 [Compound 15]	–	123 to 127 °C	1.49 µg/mL (≈ 3.72 µM)	> 10.1 µg/mL
COc1cccc(-c2cnc(-c3ccccn3)nc2C2CCN(Cc3cc(Cl)ccc3O)CC2)c1 [Compound 23]	–	165 to 166 °C	7.37 µg/mL (≈ 15.1 µM)	4.4 µg/mL (≈ 9.03 µM)
COc1cccc(-c2cnc(-c3ccncc3)nc2C2CCN(Cc3ccc(Cl)cc3)CC2)c1 [Compound 44]	–	131 °C	2.23 µg/mL (≈ 4.73 µM)	7 µg/mL (≈ 14.9 µM)
N#Cc1cccc(-c2cnc(-c3ccncc3)nc2C2CCCN(CC(F)(F)F)C2)c1 (stereo not shown) [Compound 59]	–	163 to 164 °C	> 26.7 µg/mL	> 10.6 µg/mL
COc1cccc(-c2cnc(-c3ccncc3)nc2C2CCN(Cc3cccc(C#N)c3)CC2)c1 [Compound 31]	–	140 °C	7.32 µg/mL (≈ 15.9 µM)	4.2 µg/mL (≈ 9.1 µM)
COc1cccc(-c2cnc(-c3ccncc3)nc2C2CCN(Cc3ccccc3C#N)CC2)c1 [Compound 42]	–	158 °C	6.75 µg/mL (≈ 14.6 µM)	5.1 µg/mL (≈ 11 µM)
COc1cccc(-c2cnc(-c3ccncc3)nc2C2CCN(Cc3cccc(F)c3)CC2)c1 [Compound 3]	–	111 to 114 °C	5.59 µg/mL (≈ 12.3 µM)	> 4.5 µg/mL
COc1cccc(-c2cnc(-c3ccncc3)nc2C2CCN(Cc3ccccc3C(F)(F)F)CC2)c1 [Compound 46]	–	144 °C	4.1 µg/mL (≈ 8.13 µM)	4.2 µg/mL (≈ 8.32 µM)
COc1cccc(-c2cnc(-c3ccncc3)nc2N2CCC(NC(=O)C(C)Oc3ccccc3)CC2)c1 (stereo not shown) [Compound 22]	–	106 to 108 °C	5.16 µg/mL (≈ 10.1 µM)	8.5 µg/mL (≈ 16.7 µM)
CC(C)(C)CN1CCC(c2nc(C3CC3)ncc2-c2cccc(C#N)c2)CC1 [Compound 63]	–	125 to 126 °C	2.74 µg/mL (≈ 7.32 µM)	> 9.4 µg/mL
CN(C)c1cccc(-c2cnc(-c3ccncc3)nc2C2CCN(CC(C)(C)C)CC2)c1 [Compound 37]	–	140 to 142 °C	3.04 µg/mL (≈ 7.08 µM)	9.2 µg/mL (≈ 21.4 µM)
COc1cccc(-c2cnc(-c3ccc(OC)nc3)nc2C2CCN(CC(C)(C)C#N)CC2)c1 [Compound 81]	0.125 µg/mL (≈ 0.273 µM)	–	–	–
COc1cccc(-c2cnc(-c3ccncc3)nc2N2CCN(CC(C)(C)C)CC2)c1 [Compound 21]	–	117 to 120 °C	0.39 µg/mL (≈ 0.934 µM)	5.9 µg/mL (≈ 14.1 µM)

Source: patent US9725432B2, “Pyrimidine derivatives for the treatment of bacterial diseases” (JANSSEN R&D IRELAND, priority 2012, dated 2017)
